Laboratory results as given in publication PMC9693575, “Isopropyl Amino Acid Esters Ionic Liquids as Vehicles for Non-Steroidal Anti-Inflammatory Drugs in Potential Topical Drug Delivery Systems with Antimicrobial Activity” (International Journal of Molecular Sciences, 2022).

Tests used:
[1] = system: Escherichia coli; test: Disc diffusion antimicrobial susceptibility test, Escherichia coli; format: cell-based; design: key to Inhibition diameter: -: no growth of the organism
Protocol: (§1) The plates were incubated for 24 h at 37 °C.

[2] = system: Staphylococcus epidermidis; test: Disc diffusion antimicrobial susceptibility test, Staphylococcus epidermidis; format: cell-based; design: key to Inhibition diameter: -: no growth of the organism
Protocol: as §1

[3] = system: Micrococcus Luteus; test: Disc diffusion antimicrobial susceptibility test, Micrococcus luteus; format: cell-based; design: key to Inhibition diameter: -: no growth of the organism; settings: for zone of inhibition at 25000 µg/mL / zone of inhibition at 50000 µg/mL / zone of inhibition at 100000 µg/mL / zone of inhibition at 200000 µg/mL / zone of inhibition at 400000 µg/mL / zone of inhibition at 600000 µg/mL / zone of inhibition at 800000 µg/mL: Micrococcus luteus, 24 h, read-out: Inhibition diameter
[4] = Thermogravimetric analysis (thermal stability); settings: for TDTGmax, maximum decomposition temperature: DTG, air atmosphere, 10 °C min−1
Protocol: The thermal stabilities of the obtained NSAIDs isopropyl ester amino acid salts were investigated. […] The beginning of thermal degradation was evaluated based on the value of onset of the TG curve, which occurs in the first phase of the process. […]
Thermogravimetric analysis (TG)
Thermogravimetric analysis was carried out using Netzsch Proteus Thermal Analy- […]
Samples of 5–8 mg were loaded in Al2O3 […]
ment was performed in an air atmosphere (25 cm3min−1) with nitrogen flow (10 cm3min−1) […]
Differential scanning calorimetry (DSC)
Phase transformation temperatures were determined on a PerkinElmer DSC-7 (Rot-gau, Germany). The samples of 3–5 mg were loaded on the aluminum pan with a crimped lid. Measurements were carried out in a nitrogen atmosphere (20 cm3 min-1). The rate of heating/cooling was 5°C min-1. […]
tained for 30 min inside the furnace, then cooled to 0°C to condition the sample and the crucible. After that, heating was conducted to the specified temperature, followed by cool-ing. Unless otherwise stated, two complete cycles of heating and cooling were performed.
The specified maximum temperature was individual for each compound, determined from TG analysis, and it was at least 10°C lower than the onset decomposition tempera-ture. Temperatures reported from DSC data are curve peaks, the melting points being endothermic upon heating and crystallization point being exothermic upon cooling. Lead, indium, tin, and zinc were used as standards to calibrate the temperature. Indium was used for enthalpy measurement calibration. […]

[5] = solution transferred to disc 25 mg cm^−3
[6] = solution transferred to disc 50 mg cm^−3
[7] = solution transferred to disc 100 mg cm^−3
[8] = solution transferred to disc 200 mg cm^−3
[9] = solution transferred to disc 400 mg cm^−3
[10] = solution transferred to disc 600 mg cm^−3
[11] = solution transferred to disc 1000 mg cm^−3
[12] = solution transferred to disc 800 mg cm^−3

SMILES | Inhibition diameter [1, 5] | Inhibition diameter [1, 6] | Inhibition diameter [1, 7] | Inhibition diameter [1, 8] | Inhibition diameter [1, 9] | Inhibition diameter [1, 10] | Inhibition diameter [1, 11] | Inhibition diameter [2, 5] | Inhibition diameter [2, 6] | Inhibition diameter [2, 7] | Inhibition diameter [2, 8] | Inhibition diameter [2, 9] | Inhibition diameter [2, 10] | Inhibition diameter [2, 12] | Inhibition diameter [2, 11] | Inhibition diameter [3, 5] | Inhibition diameter [3, 6] | Inhibition diameter [3, 7] | Inhibition diameter [3, 8] | Inhibition diameter [3, 9] [mm] | other results
CC(C(=O)O)c1cccc(C(=O)c2ccccc2)c1.CSCCC(N)C(=O)OC(C)C (mixture of isomers) [[L-MetOiPr][KETO], L-methionine isopropyl ester ketoprofenate] | - | - | 7.3 ± 0.5 mm | 8.0 ± 0.6 mm | 8.9 ± 0.5 mm | 10.6 ± 0.7 mm | 12.9 ± 0.4 mm | - | - | - | - | - | - | - | 7.4 ± 0.2 mm | - | 7.2 ± 0.2 mm | 8.2 ± 0.2 mm | 8.5 ± 0.3 mm | 9.2 ± 0.1 | Inhibition diameter [3, 10]: 9.6 ± 0.2 mm; Inhibition diameter [3, 12]: 12.4 ± 0.2 mm; Inhibition diameter [3, 11]: 14.3 ± 0.2 mm
CC(C(=O)O)c1cccc(C(=O)c2ccccc2)c1.CC(C)OC(=O)C(N)C(C)O (mixture of isomers) [[L-ThrOiPr][KETO], L-threonine isopropyl ester ketoprofenate] | - | - | - | - | - | - | - | - | - | - | - | - | - | - | - | - | - | - | 7.4 ± 0.3 mm | 9.6 ± 0.1 | inhibition zone (in words) ([2]; S. epidermidis, tested concentrations): no inhibition zone was observed; Inhibition diameter [3, 10]: 14.3 ± 0.2 mm; Inhibition diameter [3, 12]: 15.4 ± 0.2 mm; Inhibition diameter [3, 11]: 17.4 ± 0.1 mm
CC(C(=O)O)c1cccc(C(=O)c2ccccc2)c1.CC(C)OC(=O)C(N)C(C)C (mixture of isomers) [[L-ValOiPr][KETO]] | - | - | - | 6.7 ± 0.3 mm | 7.0 ± 0.2 mm | 7.6 ± 0.3 mm | 8.3 ± 0.4 mm | - | - | - | - | 6.2 ± 0.1 mm | 6.3 ± 0.1 mm | 6.3 ± 0.2 mm | 6.9 ± 0.2 mm | 6.3 ± 0.2 mm | 7.4 ± 0.1 mm | 8.5 ± 0.3 mm | 9.1 ± 0.3 mm | 10.3 ± 0.2 | Inhibition diameter [3, 10]: 11.7 ± 0.1 mm; Inhibition diameter [3, 11]: 15.1 ± 0.2 mm
CC(C)Cc1ccc(C(C)C(=O)O)cc1 (racemic) [IBU, (R,S)-ibuprofen, reference compound] | - | - | - | - | - | - | - |  |  |  |  |  |  |  |  |  |  |  |  |  | TTGonset, the onset of the thermal degradation [4]: 186.2 °C; TDTGmax, maximum decomposition temperature [4]: 218.8 °C; zone of inhibition at 25000 µg/mL ([2]; Staphylococcus epidermidis, 24 h, solution transferred to disc 25 mg cm^−3, read-out: Inhibition diameter): 10.8 ± 0.3 mm; zone of inhibition at 50000 µg/mL ([2]; Staphylococcus epidermidis, 24 h, solution transferred to disc 50 mg cm^−3, read-out: Inhibition diameter): 11.5 ± 0.3 mm; zone of inhibition at 100000 µg/mL ([2]; Staphylococcus epidermidis, 24 h, solution transferred to disc 100 mg cm^−3, read-out: Inhibition diameter): 14.9 ± 0.3 mm; zone of inhibition at 200000 µg/mL ([2]; Staphylococcus epidermidis, 24 h, solution transferred to disc 200 mg cm^−3, read-out: Inhibition diameter): 15.3 ± 0.3 mm; zone of inhibition at 400000 µg/mL ([2]; Staphylococcus epidermidis, 24 h, solution transferred to disc 400 mg cm^−3, read-out: Inhibition diameter): 16.4 ± 0.2 mm; zone of inhibition at 600000 µg/mL ([2]; Staphylococcus epidermidis, 24 h, solution transferred to disc 600 mg cm^−3, read-out: Inhibition diameter): 17.6 ± 0.2 mm; zone of inhibition at 800000 µg/mL ([2]; Staphylococcus epidermidis, 24 h, solution transferred to disc 800 mg cm^−3, read-out: Inhibition diameter): 18.6 ± 0.2 mm; zone of inhibition at 25000 µg/mL [3, 5]: 8.6 ± 0.3 mm; zone of inhibition at 50000 µg/mL [3, 6]: 9.4 ± 0.2 mm; zone of inhibition at 100000 µg/mL [3, 7]: 9.7 ± 0.2 mm; zone of inhibition at 200000 µg/mL [3, 8]: 10.2 ± 0.1 mm; zone of inhibition at 400000 µg/mL [3, 9]: 10.6 ± 0.1 mm; zone of inhibition at 600000 µg/mL [3, 10]: 11.5 ± 0.2 mm; zone of inhibition at 800000 µg/mL [3, 12]: 12.7 ± 0.2 mm
COc1ccc2cc([C@H](C)C(=O)O)ccc2c1 [NAP, S-(+)-naproxen, reference compound] | - | - | - | - | - | - | - | - | - | - | - | - | - | - | - |  |  |  |  |  | TTGonset, the onset of the thermal degradation [4]: 224.5 °C; TDTGmax, maximum decomposition temperature [4]: 284.0 °C; zone of inhibition at 25000 µg/mL [3, 5]: 6.2 ± 0.1 mm; zone of inhibition at 50000 µg/mL [3, 6]: 6.4 ± 0.1 mm; zone of inhibition at 100000 µg/mL [3, 7]: 6.7 ± 0.1 mm; zone of inhibition at 200000 µg/mL [3, 8]: 6.8 ± 0.1 mm; zone of inhibition at 400000 µg/mL [3, 9]: 7.3 ± 0.2 mm; zone of inhibition at 600000 µg/mL [3, 10]: 7.6 ± 0.2 mm; zone of inhibition at 800000 µg/mL [3, 12]: 8.5 ± 0.2 mm
CC(C(=O)O)c1cccc(C(=O)c2ccccc2)c1.CC[C@H](C)[C@H](N)C(=O)OC(C)C [[L-IleOiPr][KETO], L-isoleucine isopropyl ester ketoprofenate] | - | - | - | - | - | - | - | - | - | - | - | 6.2 ± 0.1 mm | 7.3 ± 0.2 mm | 8.3 ± 0.1 mm | 10.4 ± 0.2 mm | - | 6.3 ± 0.2 mm | 6.6 ± 0.3 mm | 7.1 ± 0.2 mm | 7.3 ± 0.1 | Inhibition diameter [3, 10]: 8.3 ± 0.2 mm; Inhibition diameter [3, 12]: 8.4 ± 0.3 mm; Inhibition diameter [3, 11]: 9.4 ± 0.2 mm
COc1ccc2cc([C@H](C)C(=O)O)ccc2c1.CSCC[C@H](N)C(=O)OC(C)C [[L-MetOiPr][NAP], L-methionine isopropyl ester naproxenate] | - | - | - | 6.4 ± 0.3 mm | 7.1 ± 0.1 mm | 7.3 ± 0.2 mm | 7.7 ± 0.2 mm | - | - | - | - | - | - | - | 7.5 ± 0.3 mm | - | - | - | - | 6.4 ± 0.1 | TTGonset, the onset of the thermal degradation [4]: 149.6 °C; TDTGmax, maximum decomposition temperature [4]: 293.2 °C; Inhibition diameter [3, 10]: 7.1 ± 0.2 mm; Inhibition diameter [3, 12]: 7.5 ± 0.1 mm; Inhibition diameter [3, 11]: 7.8 ± 0.2 mm
